Results on 1 substance are retold here after patent publication US12274728B2, “Preparation comprising omega-3 fatty acid salts and extracts of gum resins from Boswellia species” (Evonik Operations GmbH, priority 2019, dated 2025).

The assay relates to human monocyte-derived M1 macrophages. Description: Lipid mediator (LM) formation in human monocyte-derived M1 macrophages, UPLC-MS-MS. It counts as cell-based. Particulars: M1, single agents: extracts 50 μg/mL, AKBA 10 μM, AvailOm® 3 μg/mL, 180 min (FIG. 1). The protocol:
Leukocyte concentrates from freshly withdrawn peripheral blood of healthy adult human donors were provided by the Institute of Transfusion Medicine, University Hospital Jena, Germany. The experimental protocol was approved by the ethical committee of the University Hospital Jena. All methods were performed in accordance with the relevant guidelines and regulations. Peripheral blood mononuclear cells (PBMC) were isolated using dextran sedimentation and Ficoll-Histopaque 1077-1 (Sigma-Aldrich, Taufkirchen, Germany) centrifugation. For differentiation and polarization towards M1 and M2, published criteria were used. […]
Macrophages (2×10^6/ml) were incubated in PBS containing 1 mM CaCl2). […] Supernatants were transferred to 2 ml of ice-cold methanol containing 10 μl of deuterium-labeled internal standards (200 nM […], d4-LTB4, d5-LXA4, d5-RvD2, d4-PGE2 and 10 μM d8-AA) to facilitate quantification. […] LM profiling was analyzed with an Acquity™ UPLC system (Waters, Milford, MA) and a QTRAP 5500 Mass Spectrometer (ABSciex, Darmstadt, Germany) equipped with a Turbo VTM Source and electrospray ionization (ESI). […] Quantification was achieved by calibration curves for each LM. […]

Take “3-O-acetyl-11-keto-beta-boswellic acid [AKBA]”: the “LM formation / LM biosynthesis” value was “did not significantly elevate”.
